Values joined by “and” are separate entries in the source; they are usually repeats but may differ in a detail not shown here. Equal entries are not always repeated. After the bases stand the sugars from the 5' end (letter, count) and the backbone: PS all phosphorothioate, else s phosphorothioate and o phosphodiester by linkage. Methylation of C is not given here. e = 2'-O-(2-methoxyethyl) (MOE); k = constrained ethyl (cEt); d = 2'-deoxy (DNA)

In this data set the target is IRF4. The conditions noted are these: ASO.

For “CTATAGTGTTCCAGGA (sugars kkddddddddddkeke, PS)”, under “MM.1R, 1 µM”, the target mRNA inhibition is 36%.
On the same count and under the same terms, the same measure for “CTATAGTGTTCCAGGA (sugars kkkdddddddddkeke, PS)”: 22%.
As to CTATCAGGATCTCAAG (sugars k3 d10 k3, PS), the target mRNA inhibition (SK-MEL-28, 4 µM) came to 9%.
Same read-out and setting: under CTATGCTGAACCCCAC (sugars k3 d10 k3, PS) stands 1%; under CTCAATAATCTCCCAG (sugars k3 d10 k3, PS), 53%; under CTCACTATTAAACAGC (sugars k3 d10 k3, PS), 24%.
Take CTCCACAGCAAGGCCT (sugars k3 d10 k3, PS): where the note is “SK-MEL-28, 4 µM”, the target mRNA inhibition worked out at 51%.
On the same count and under the same terms, under CTCCACGCGCGGAGGA (sugars k3 d10 k3, PS) stands -1%; under CTCCACTACCATATTG (sugars k3 d10 k3, PS), 1%; under CTCCACTGTTAAAGCA (sugars k3 d10 k3, PS), 52%.
In the case of CTCCAGCTTCGGTCGA (sugars k3 d10 k3, PS), the target mRNA inhibition (MM.1R, 1 µM) was found to be 9%.
Still for that read-out and setting: under CTCCGGAGTCAGTGCT (sugars k3 d10 k3, PS) stands 1%; under CTCCTATGCTGAACCC (sugars k3 d10 k3, PS), 9%.
Consider CTCCTTTTTTGGCTCC (sugars k3 d10 k3, PS), for which the target mRNA inhibition (SK-MEL-28, 4 µM) stood at 19%.
The same measure, in the same setting: the same measure for CTCTAGACAGAGGCCC (sugars k3 d10 k3, PS): 20%; for CTCTAGTCAGTGTCAA (sugars k3 d10 k3, PS): 59%.
Take “CTCTATAGTGTTCCAG (sugars e1 k2 d9 k2 e2, PS)”: the target mRNA inhibition came to 20% (MM.1R, 0.074 µM); 37% (MM.1R, 0.222 µM); 53% (MM.1R, 0.666 µM); 59% (MM.1R, 1 µM); 75% (MM.1R, 2 µM).
For the sequence “CTCTATAGTGTTCCAG (sugars k2 d9 e3 k2, PS)”, the target mRNA inhibition (MM.1R, 1 µM) was 48%.
The same measure, in the same setting: under “CTCTATAGTGTTCCAG (sugars kddddddddddkekek, PS)” stands 24%; under “CTCTATAGTGTTCCAG (sugars kkdddddddddekeke, PS)”, 43%.
Take CTCTCCAGGTGGCTCA (sugars k3 d10 k3, PS): where the note is “SK-MEL-28, 4 µM”, the target mRNA inhibition came to 13%.
Still for that read-out and setting: under CTCTCCAGGTGGCTCA (sugars k4 d8 k4, PS) stands 12%; under CTCTTGTGAGGCAAAG (sugars k3 d10 k3, PS), 48%.
Same read-out and setting: the same measure for CTGAAGACAATGTTGT (sugars k3 d10 k3, PS): 55%.
Still for that read-out and setting: under CTGAATTGTTACTAAA (sugars k3 d10 k3, PS) stands 21%; under CTGACAAGAACTGCTG (sugars k3 d10 k3, PS), 21%; under CTGACTTTAATATTAG (sugars k3 d10 k3, PS), 56%.
Take CTGAGAGCCGAGGCCT (sugars k3 d10 k3, PS): the target mRNA inhibition (SK-MEL-28, 4 µM) is -17%.
As to CTGAGAGTAAACTTGG (sugars k3 d10 k3, PS), the target mRNA inhibition (MM.1R, 1 µM) was -1%.
Take CTGAGTTGTACAGGAC (sugars k3 d10 k3, PS): the target mRNA inhibition (MM.1R, 0.0625 µM) is 4%; the target mRNA inhibition (MM.1R, 0.25 µM) worked out at 22%; the target mRNA inhibition (MM.1R, 1 µM) was 55% and 52%; the target mRNA inhibition (MM.1R, 4 µM) was determined as 81%.
As to CTGATGTGTTCTGGTA (sugars k3 d10 k3, PS), the target mRNA inhibition (MM.1R, 0.0625 µM) is 14% and 36%; the target mRNA inhibition (MM.1R, 0.25 µM) is 27% and 41%; the target mRNA inhibition (MM.1R, 1 µM) is 45% and 53%; the target mRNA inhibition (MM.1R, 4 µM) is 69% and 70%.
Regarding CTGCAAACGACAAGTG (sugars k3 d10 k3, PS), the target mRNA inhibition (MM.1R, 1 µM) is -18%.
As to CTGCAGAACAGACGCG (sugars k3 d10 k3, PS), where the note is “SK-MEL-28, 4 µM”, the target mRNA inhibition came to 11%.
The same measure, in the same setting: under CTGCAGTTCACGAAAC (sugars k3 d10 k3, PS) stands 38%.

These data come from the OligoGym collection.
